Assay results taken from patent US20220332700A1, “NOVEL APOPTOSIS SIGNAL-REGULATING KINASE 1 INHIBITORS” (MANKIND PHARMA LTD, priority 2019, published 2022).

Columns and labels:
recombinant ASK1 = biological target: T1, recombinant ASK1 (Homo sapiens, UniProt Q99683); experiment: ASK1 Biochemical Assay (HTRF KinEASE-STK S3); conditions: ATP 100 μM; read-out: Biochemical Assay IC50
T1 construct: purchased Carna Biosciences
Outline: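 Recombinant ASK1 (5 ng) preincubated with compound 1 h at 23 °C in MOPS pH 7 buffer with Mg-acetate, DTT, NP40, glycerol, BSA and 1% DMSO. Inhibition calculated against vehicle after substrate-blank subtraction.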

Human ASK1 = biological target: T2, Human ASK1 (Homo sapiens, UniProt Q99683); experiment: ASK1 Cell Based Assay (phospho p38 read out in hASK1 transfected HEK293T-AP1 cells); conditions: HEK293T-AP1 cells, 1 mM hydrogen peroxide, phospho p38; read-out: Cell Based Assay IC50
T2 construct: expressed in transfected cells; host or cells: HEK293T-AP1
T2 sequence (Q99683 1-1374): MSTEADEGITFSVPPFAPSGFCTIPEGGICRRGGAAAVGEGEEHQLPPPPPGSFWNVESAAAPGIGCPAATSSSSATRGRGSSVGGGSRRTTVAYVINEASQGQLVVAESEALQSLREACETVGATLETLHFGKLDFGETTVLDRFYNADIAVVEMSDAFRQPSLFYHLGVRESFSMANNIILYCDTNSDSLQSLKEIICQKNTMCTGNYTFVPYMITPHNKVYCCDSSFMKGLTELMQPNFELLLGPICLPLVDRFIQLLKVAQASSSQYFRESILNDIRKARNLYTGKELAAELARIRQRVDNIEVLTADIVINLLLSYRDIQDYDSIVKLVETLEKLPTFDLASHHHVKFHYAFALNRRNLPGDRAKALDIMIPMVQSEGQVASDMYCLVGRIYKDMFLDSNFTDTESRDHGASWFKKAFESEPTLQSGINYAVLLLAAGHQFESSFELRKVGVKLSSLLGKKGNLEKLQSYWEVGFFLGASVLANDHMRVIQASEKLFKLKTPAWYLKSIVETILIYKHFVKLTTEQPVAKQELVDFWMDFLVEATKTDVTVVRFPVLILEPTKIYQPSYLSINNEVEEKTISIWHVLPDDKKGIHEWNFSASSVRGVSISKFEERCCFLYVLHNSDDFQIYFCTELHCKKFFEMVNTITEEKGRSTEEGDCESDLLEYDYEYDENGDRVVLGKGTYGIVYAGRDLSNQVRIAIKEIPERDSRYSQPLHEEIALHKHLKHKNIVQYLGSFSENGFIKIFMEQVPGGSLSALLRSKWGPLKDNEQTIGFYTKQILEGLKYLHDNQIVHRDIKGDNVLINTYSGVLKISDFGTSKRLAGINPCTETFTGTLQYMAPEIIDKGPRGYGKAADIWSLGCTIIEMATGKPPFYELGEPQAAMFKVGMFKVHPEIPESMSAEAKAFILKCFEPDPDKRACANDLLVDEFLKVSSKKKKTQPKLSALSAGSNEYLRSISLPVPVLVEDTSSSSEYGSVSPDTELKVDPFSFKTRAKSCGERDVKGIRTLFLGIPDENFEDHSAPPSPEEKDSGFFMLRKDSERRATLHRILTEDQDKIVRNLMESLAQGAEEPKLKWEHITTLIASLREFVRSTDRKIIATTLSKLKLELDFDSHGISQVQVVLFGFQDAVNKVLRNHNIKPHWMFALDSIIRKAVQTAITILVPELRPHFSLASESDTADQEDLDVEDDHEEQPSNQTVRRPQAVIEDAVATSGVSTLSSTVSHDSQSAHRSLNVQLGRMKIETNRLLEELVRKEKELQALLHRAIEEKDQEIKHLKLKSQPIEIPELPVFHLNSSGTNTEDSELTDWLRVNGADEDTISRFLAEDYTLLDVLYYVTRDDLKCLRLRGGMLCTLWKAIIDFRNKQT
Description: HEK293T-AP1 cells were seeded at a density of 20,000 cells per well in a poly-d-lysine coated 96 well microplate. Next day, cells were transfected with hASK1-pcDNA3.1 vector using lipofectamine 3000. After 24 hours of transfection, cells were treated with compounds for 24 hours in assay medium. DMSO was used as a vehicle control with a final DMSO concentration of 0.2%. On 4th day, medium was discarded and cells were activated with 1 mM hydrogen peroxide for 1 hour in the presence of compounds. Cells were lysed for 1 hour with 1× lysis buffer on a shaker at 100 rpm. Sixteen microliters of lysate was collected into a 384 well small volume plate. Phospho p38 levels in the lysate was detected by using CisbioPhospho-p38 MAPK (Thr180/Tyr182) #64P38PEG.Four microliters of phospho p38 antibodies labelled with europium cryptate and d2 acceptor, were added to the lysate and incubated overnight. TR-FRET was measured at an excitation of 335 nm and emission was measured at 615 nm and 665 nm in BMG FLUOstar multimode reader.
Compounds were assessed for ASK1 inhibition based on phospho p38 read out. […] Background control values were susbtracted from vehicle control as well as from compound treated wells.

## CC(C)n1cnnc1-c1cccc(N2CCN(c3ccc(S(=O)(=O)N4CCOCC4)cc3)C2=O)n1 [Example 1073, 1-(6-(4-isopropyl-4H-1,2,4-triazol-3-yl)pyridin-2-yl)-3-(4-(morpholinosulfonyl)phenyl)imidazolidin-2-one]
Recombinant ASK1
  IC50: < 0.1 µM
Human ASK1
  IC50: > 0.1 µM

## CC(C)n1cnnc1-c1cccc(N2CCN(c3ccc(N4CC5(COC5)C4)cc3)C2=O)n1 [Example 1074, 1-(4-(2-oxa-6-azaspiro[3.3]heptan-6-yl)phenyl)-3-(6-(4-isopropyl-4H-1,2,4-triazol-3-yl)pyridin-2-yl)imidazolidin-2-one]
Recombinant ASK1
  IC50: < 0.1 µM
Human ASK1
  IC50: > 0.1 µM

## CC(C)n1cnnc1-c1cccc(N2CCN(c3ccc(N4CCOCC4)c(F)c3)C2=O)n1 [Example 1075, 1-(3-fluoro-4-morpholinophenyl)-3-(6-(4-isopropyl-4H-1,2,4-triazol-3-yl)pyridin-2-yl)imidazolidin-2-one]
Recombinant ASK1
  IC50: < 0.1 µM
Human ASK1
  IC50: > 1 µM

## CC1CN(c2ccc(N3CCN(c4cccc(-c5nncn5C(C)C)n4)C3=O)cc2)C(=O)CO1 (stereo not drawn) [Example 1076, 4-(4-(3-(6-(4-isopropyl-4H-1,2,4-triazol-3-yl)pyridin-2-yl)-2-oxoimidazolidin-1-yl)phenyl)-6-methylmorpholin-3-one]
Recombinant ASK1
  IC50: < 0.1 µM
Human ASK1
  IC50: > 1 µM

## CC(C)n1cnnc1-c1cccc(N2CCN(c3ccc(C(=O)N4CCOCC4)cc3)C2=O)n1 [Example 1077, 1-(6-(4-isopropyl-4H-1,2,4-triazol-3-yl)pyridin-2-yl)-3-(4-(morpholine-4-carbonyl)phenyl)imidazolidin-2-one]
Recombinant ASK1
  IC50: < 0.1 µM
Human ASK1
  IC50: > 0.1 µM

## CC1CN(c2ccc(N3CCN(c4cccc(-c5nncn5C(C)C)n4)C3=O)cc2)CCO1 (stereo not drawn) [Example 1078, 1-(6-(4-isopropyl-4H-1,2,4-triazol-3-yl)pyridin-2-yl)-3-(4-(2-methylmorpholino)phenyl)imidazolidin-2-one]
Recombinant ASK1
  IC50: < 0.1 µM
Human ASK1
  IC50: > 0.1 µM

## CC(C)n1cnnc1-c1cccc(N2CCN(c3ccc(CN4CCOCC4)cc3)C2=O)n1 [Example 1080, 1-(6-(4-isopropyl-4H-1,2,4-triazol-3-yl)pyridin-2-yl)-3-(4-(morpholinomethyl)phenyl)imidazolidin-2-one]
Recombinant ASK1
  IC50: < 0.1 µM
Human ASK1
  IC50: > 1 µM

## CC(C)n1cnnc1-c1cccc(N2CCN(c3ccc(NC4CCOCC4)cc3)C2=O)n1 [Example 1081, 1-(6-(4-isopropyl-4H-1,2,4-triazol-3-yl)pyridin-2-yl)-3-(4-(tetrahydro-2H-pyran-4-ylamino)phenyl)imidazolidin-2-one]
Recombinant ASK1
  IC50: < 0.05 µM
Human ASK1
  IC50: > 0.1 µM

## CC(C)n1cnnc1-c1cccc(N2CCN(c3ccc(C(O)C(F)(F)F)cc3)C2=O)n1 (stereo not drawn) [Example 1083, 1-(4-(2,2,2-trifluoro-1-hydroxyethyl)phenyl)-3-(6-(4-isopropyl-4H-1,2,4-triazol-3-yl)pyridin-2-yl)imidazolidin-2-one]
Recombinant ASK1
  IC50: < 0.1 µM
Human ASK1
  IC50: > 1 µM

## CC(C)n1cnnc1-c1cccc(N2CCN(c3ccc(C4CCN(S(C)(=O)=O)CC4)cc3)C2=O)n1 [Example 1084, 1-(6-(4-isopropyl-4H-1,2,4-triazol-3-yl)pyridin-2-yl)-3-(4-(1-(methylsulfonyl)piperidin-4-yl)phenyl)imidazolidin-2-one]
Recombinant ASK1
  IC50: < 0.1 µM
Human ASK1
  IC50: > 1 µM

## CC(C)n1cnnc1-c1cccc(N2CCN(c3ccc(N4[C@H](C)COC[C@@H]4C)cc3)C2=O)n1 [Example 1085, 1-(6-(4-isopropyl-4H-1,2,4-triazol-3-yl)pyridin-2-yl)-3-(4-((3R,5S)-3,5-dimethylmorpholino)phenyl)imidazolidin-2-one]
Recombinant ASK1
  IC50: < 0.1 µM
Human ASK1
  IC50: > 0.1 µM

## CC(C)n1cnnc1-c1cccc(N2CCN(c3ccc(N4CCC(C#N)CC4)cc3)C2=O)n1 [Example 1087, 1-(4-(3-(6-(4-isopropyl-4H-1,2,4-triazol-3-yl)pyridin-2-yl)-2-oxoimidazolidin-1-yl)phenyl)piperidine-4-carbonitrile]
Recombinant ASK1
  IC50: < 0.1 µM
Human ASK1
  IC50: > 0.1 µM

## CC(C)NC1CN(c2ccc(N3CCN(c4cccc(-c5nncn5C(C)C)n4)C3=O)cc2)C1 [Example 1088, 1-(6-(4-isopropyl-4H-1,2,4-triazol-3-yl)pyridin-2-yl)-3-(4-(3-(isopropylamino)azetidin-1-yl)phenyl)imidazolidin-2-one]
Recombinant ASK1
  IC50: < 0.1 µM
Human ASK1
  IC50: > 1 µM

## CC(C)n1cnnc1-c1cccc(N2CCN(c3ccc(N4CC(O)C4)cc3)C2=O)n1 [Example 1090, 1-(4-(3-hydroxyazetidin-1-yl)phenyl)-3-(6-(4-isopropyl-4H-1,2,4-triazol-3-yl)pyridin-2-yl)imidazolidin-2-one]
Recombinant ASK1
  IC50: < 0.1 µM
Human ASK1
  IC50: > 1 µM

## CC(C)n1cnnc1-c1cccc(N2CCN(c3ccc(N4CCC(C#N)C4)cc3)C2=O)n1 (stereo not drawn) [Example 1091, 1-(4-(3-(6-(4-isopropyl-4H-1,2,4-triazol-3-yl)pyridin-2-yl)-2-oxoimidazolidin-1-yl)phenyl)pyrrolidine-3-carbonitrile]
Recombinant ASK1
  IC50: < 0.1 µM
Human ASK1
  IC50: > 1 µM

## CC(C)n1cnnc1-c1cccc(N2CCN(c3ccc(N4CCN(C)CC4)cc3)C2=O)n1 [Example 1092, 1-(6-(4-isopropyl-4H-1,2,4-triazol-3-yl)pyridin-2-yl)-3-(4-(4-methylpiperazin-1-yl)phenyl)imidazolidin-2-one]
Recombinant ASK1
  IC50: < 0.1 µM
Human ASK1
  IC50: > 1 µM

## CC(C)n1cnnc1-c1cccc(N2CCN(c3ccc(N4CC(C(N)=O)C4)cc3)C2=O)n1 [Example 1093, 1-(4-(3-(6-(4-isopropyl-4H-1,2,4-triazol-3-yl)pyridin-2-yl)-2-oxoimidazolidin-1-yl)phenyl)azetidine-3-carboxamide]
Recombinant ASK1
  IC50: < 0.1 µM
Human ASK1
  IC50: > 0.1 µM

## CC(C)n1cnnc1-c1cccc(N2CCN(c3ccc(N4CC(NC5CC5)C4)cc3)C2=O)n1 [Example 1094, 1-(4-(3-(cyclopropylamino)azetidin-1-yl)phenyl)-3-(6-(4-isopropyl-4H-1,2,4-triazol-3-yl)pyridin-2-yl)imidazolidin-2-one]
Recombinant ASK1
  IC50: < 0.1 µM
Human ASK1
  IC50: > 1 µM

## CC(C)n1cnnc1-c1cccc(N2CCN(c3ccc(C(=O)N4CC(C#N)C4)cc3)C2=O)n1 [Example 1095, 1-(4-(3-(6-(4-isopropyl-4H-1,2,4-triazol-3-yl)pyridin-2-yl)-2-oxoimidazolidin-1-yl)benzoyl)azetidine-3-carbonitrile]
Recombinant ASK1
  IC50: < 0.1 µM
Human ASK1
  IC50: > 1 µM

## CC(C)n1cnnc1-c1cccc(N2CCN(c3ccc(N4CC(F)C4)cc3)C2=O)n1 [Example 1096, 1-(4-(3-fluoroazetidin-1-yl)phenyl)-3-(6-(4-isopropyl-4H-1,2,4-triazol-3-yl)pyridin-2-yl)imidazolidin-2-one]
Recombinant ASK1
  IC50: < 0.1 µM
Human ASK1
  IC50: > 0.1 µM

## CC(C)n1cnnc1-c1cccc(N2CCN(c3ccc(C(C#N)N4CCOCC4)cc3)C2=O)n1 (stereo not drawn) [Example 1098, 2-(4-(3-(6-(4-isopropyl-4H-1,2,4-triazol-3-yl)pyridin-2-yl)-2-oxoimidazolidin-1-yl)phenyl)-2-morpholinoacetonitrile]
Recombinant ASK1
  IC50: < 0.1 µM
Human ASK1
  IC50: > 1 µM
